These results are taken from patent US6506775B1, “Substituted benzylaminopiperidine compounds” (Pfizer INC, priority 1995, dated 2003).

One may read the melting point as the temperature, or range, at which the solid turns liquid.

Data set [1] concerns [Sar^9, Met(O2)^11]substance P-induced tapping. Description: [Sar9, Met(O2)11]substance P-induced tapping test in gerbils. It is filed as in vivo. Conditions: repetitive hind paw tapping, Examples 3 and 5 compared with the corresponding no halosubstituted compounds. As to the method: The activity of the compounds of this invention against CNS disorders is determined in a [Sar^9, Met(O2)^11]substance P-induced tapping test in gerbils. More specifically, gerbils are lightly anesthetized with ether and the skull surface is exposed. [Sar^9, Met(O2)^11]substance P or vehicle (5 μl) are administered directly into the lateral ventricles via a 25 gauge needle inserted 3.5 mm below lambda. Following injection, gerbils are placed in 2 l beaker individually and monitored for repetitive hind paw tapping. Some compounds prepared in the following Examples were tested in accordance with these testing methods.

Turning to `COc1ccc(C(F)(C(F)(F)F)C(F)(F)F)cc1CN[C@H]1CCCN[C@H]1c1ccccc1.Cl.Cl`, the melting point lay in the range of 265 to 270 °C.

`CC(F)(F)c1ccc(OC(F)(F)F)c(CN[C@H]2CCCN[C@H]2c2ccccc2)c1.Cl.Cl` came in with a melting point of 172 to 174 °C.

`COc1ccc(C(C)(C)C#CC(F)(F)F)cc1CN[C@H]1CCCN[C@H]1c1ccccc1.Cl.Cl` yielded a melting point of 225 to 227 °C.

`Cl.Cl.Fc1ccc(C(F)(F)F)cc1CN[C@H]1CCCN[C@H]1c1ccccc1` had a melting point of 195 to 203 °C.

Regarding `COc1ccc(C(C(F)(F)F)C(F)(F)F)cc1CN[C@H]1CCCN[C@H]1c1ccccc1.Cl.Cl` [Example 5, (2S,3S)-2-Phenyl-3-(5-(2,2,2-trifluoro-1-(trifluoromethyl)ethyl)-2-methoxybenzyl)aminopiperidine dihydrochloride], the melting point fell in the range of 290 to 294 °C. In data set [1], the “activity against CNS disorders” value is “unexpectedly improved activity against CNS disorders”.

Take `COc1ccc(C(F)(F)F)cc1CN[C@H]1CCCN[C@H]1c1ccccc1.Cl.Cl` [Example 3, (2S,3S)-3-(2-Methoxy-5-(trifluoromethyl)benzyl)amino-2-phenylpiperidine dihydrochloride]: the melting point is 228 to 233 °C. Also, in data set [1], the “activity against CNS disorders” value is on record as “unexpectedly improved activity against CNS disorders”.

As for `Cl.Cl.FC(F)(F)c1ccc(Oc2ccccc2)c(CN[C@H]2CCCN[C@H]2c2ccccc2)c1`, the melting point was in the range of 190 to 197 °C.
